Test results reported in article PMC2808025 (Current Chemical Genomics, 2009).
“And” between values parts separate entries of the source, which are not always exact repeats. Identical values can stand only once. Like-named read-outs stand apart in the source and are kept apart here.

Columns and labels:
[1] = system: PAP; conditions: cited from earlier work
[2] = biological target: T1, human PAP (Homo sapiens, UniProt P15309); format: biochemical
T1 sequence (P15309 33-386): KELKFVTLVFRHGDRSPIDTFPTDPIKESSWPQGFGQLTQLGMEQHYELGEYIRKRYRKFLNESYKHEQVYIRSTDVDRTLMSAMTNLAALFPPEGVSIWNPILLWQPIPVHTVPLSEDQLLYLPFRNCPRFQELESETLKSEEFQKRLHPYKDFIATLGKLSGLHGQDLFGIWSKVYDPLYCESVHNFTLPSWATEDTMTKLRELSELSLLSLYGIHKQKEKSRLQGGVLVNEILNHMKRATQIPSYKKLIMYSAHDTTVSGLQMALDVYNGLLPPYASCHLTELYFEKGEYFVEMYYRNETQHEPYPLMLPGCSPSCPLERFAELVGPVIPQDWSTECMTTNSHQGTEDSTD

For O=P(O)(O)C(NCc1ccccc1)c1ccccc1 (stereo not drawn) [BABPA, α-benzylaminobenzylphosphonic acid], the IC50 ([1]; known PAP inhibitor) is listed as “nanomolar range”.
Compound Cc1cc(=O)oc2c(F)c(OP(=O)(O)O)c(F)cc12 [DiFMUP, difluoro-4-methylumbelliferyl phosphate] has a Km [2] of 918 µM.
For O=C([O-])[C@H](O)[C@@H](O)C(=O)[O-].[Na+].[Na+] [sodium L-(+)-tartrate], the IC50 ([1]; read-out: published IC50) is listed as 29 µM, the Hill slope [2] is listed as 0.96 and 0.89 and the IC50 [2] is listed as 53 µM and 40 µM.
